Assay results as given in patent US20090311237A1, “Combination therapy using a soluble hyaluronidase and a bisphosphonate” (priority 2008, published 2009).
Like-named read-outs stand apart in the source and are kept apart here.

Test: Phase 1 Stage 1 clinical pharmacokinetics of SC ZA co-administered with rHuPH20
Format: in vivo, human
Conditions: human, serum, sc; for AUC(0-inf): read-out: AUC (0-inf); for Tmax: read-out: Tmax; for MRT: SC […] infusion, 100 mL, 3 mL/min, 24000 Units rHuPH20, extrapolated to ∞, read-out: SC MRT
Method: A pharmacokinetic study of zoledronic acid (ZA) co-administered with rHuPH20 in human subjects was conducted. The primary objective of the study was to determine the bioavailability of zoledronic acid dosed via subcutaneous (SC) co-administration with human recombinant hyaluronidase PH20 (rHuPH20). […] The patients were administered the prescribed dosage formulations as follows: Cohorts 1-5 were administered a single subcutaneous infusion in a dosage volume of 100 ml at a rate of 3 mL/min. […] The dosing solution is administered via needle or catheter into the SC space of the left anterior thigh (midway between the anterior iliac crest and the cephalad border of the patella). For cohorts 1-5, the dosing solutions were administered by a controlled rate infusion pump at approximately 3 mL/minute. […] The dosing solutions were administered by syringe push bolus injection. […] Serum concentration of ZA was determined using a qualified LC-MS-MS assay after derivatization with diazomethane (Zhu, L S et al. (2006) Rapid Commun. […] The assay range was from 2.0 to 400 ng/mL with a lower limit of quantitation (LLOQ) at 2.0 ng/mL. […] Non-compartmental analysis was used for derivation of primary and secondary pharmacokinetic (PK) parameters. […] Summary statistics (mean, standard deviation, and median) were calculated using JMP or Microsoft Excel.

[1] = 0.0791 mg/kg, Subj 37, ZA 0.0791 mg/kg SC, inf 0.556 hr, PH20 24000 U
[2] = 0.0794 mg/kg, Subj 74, ZA 0.0794 mg/kg SC, inf […], PH20 6000 U
[3] = 0.082 mg/kg, Subj 63, ZA 0.0820 mg/kg SC, inf […], PH20 6000 U
[4] = 0.0877 mg/kg, Subj 46, ZA 0.0877 mg/kg SC, inf 0.276 hr, PH20 12000 U

O=P(O)(O)C(O)(Cn1ccnc1)P(=O)(O)O [ZA, 1-hydroxy-2-(1H-imidazol-1-yl)ethylidene-1,1-bisphosphonic acid]
AUC(0-t) (0.0791 mg/kg, AUC (0-12 h), Subj 37, ZA 0.0791 mg/kg SC, inf 0.556 hr, PH20 24000 U): 499 ng·h/mL | AUC(0-t) (0.0791 mg/kg, AUC (0-24 h), Subj 37, ZA 0.0791 mg/kg SC, inf 0.556 hr, PH20 24000 U): 536 ng·h/mL | AUC(0-t) (0.0791 mg/kg, AUC (0-48 h), Subj 37, ZA 0.0791 mg/kg SC, inf 0.556 hr, PH20 24000 U): 578 ng·h/mL | Cmax [1]: 131 ng/mL | AUC(0-inf) [1]: 620 ng·h/mL | Tmax [1]: 48.6 min | AUC(0-t) (0.0794 mg/kg, AUC (0-12 h), Subj 74, ZA 0.0794 mg/kg SC, inf […], PH20 6000 U): 426 ng·h/mL | AUC(0-t) (0.0794 mg/kg, AUC (0-24 h), Subj 74, ZA 0.0794 mg/kg SC, inf […], PH20 6000 U): 467 ng·h/mL | AUC(0-t) (0.0794 mg/kg, AUC (0-48 h), Subj 74, ZA 0.0794 mg/kg SC, inf […], PH20 6000 U): 509 ng·h/mL | Cmax [2]: 120 ng/mL | AUC(0-inf) [2]: 555 ng·h/mL | Tmax [2]: 45 min | AUC(0-t) (0.082 mg/kg, AUC (0-12 h), Subj 63, ZA 0.0820 mg/kg SC, inf […], PH20 6000 U): 497 ng·h/mL | AUC(0-t) (0.082 mg/kg, AUC (0-24 h), Subj 63, ZA 0.0820 mg/kg SC, inf […], PH20 6000 U): 559 ng·h/mL | AUC(0-t) (0.082 mg/kg, AUC (0-48 h), Subj 63, ZA 0.0820 mg/kg SC, inf […], PH20 6000 U): 613 ng·h/mL | Cmax [3]: 167 ng/mL | AUC(0-inf) [3]: 662 ng·h/mL | Tmax [3]: 30 min | AUC(0-t) (0.0877 mg/kg, AUC (0-12 h), Subj 46, ZA 0.0877 mg/kg SC, inf 0.276 hr, PH20 12000 U): 610 ng·h/mL | AUC(0-t) (0.0877 mg/kg, AUC (0-24 h), Subj 46, ZA 0.0877 mg/kg SC, inf 0.276 hr, PH20 12000 U): 656 ng·h/mL | AUC(0-t) (0.0877 mg/kg, AUC (0-48 h), Subj 46, ZA 0.0877 mg/kg SC, inf 0.276 hr, PH20 12000 U): 706 ng·h/mL | Cmax [4]: 213 ng/mL | AUC(0-inf) [4]: 747 ng·h/mL | Tmax [4]: 46.8 min | MRT (0.5 mg, ZA 0.5 mg, individual subjects): 3.19 h | MRT (1 mg, ZA 1 mg, individual subjects): 6.93 h | MRT (2 mg, ZA 2 mg, individual subjects): 5.72 h | MRT (5 mg, ZA 5 mg, individual subjects): 10.9 h | AUC(0-t) (AUC (0-12h), ZA 0.25 mg SC + 24000 U rHuPH20, individual subjects): 29.7 ng·h/mL | AUC(0-t) (AUC (0-12h), ZA 0.25 mg SC + 24000 U rHuPH20, mean, n=3): 29.5 ng·h/mL | AUC(0-t) (AUC (0-12h), ZA 0.25 mg SC + 24000 U rHuPH20, median, n=3): 29.5 ng·h/mL | AUC(0-t) (AUC (0-12h), ZA 0.5 mg SC + 24000 U rHuPH20, individual subjects): 60.8 ng·h/mL | AUC(0-t) (AUC (0-12h), ZA 0.5 mg SC + 24000 U rHuPH20, mean, n=3): 63.2 ng·h/mL | AUC(0-t) (AUC (0-12h), ZA 0.5 mg SC + 24000 U rHuPH20, median, n=3): 62.4 ng·h/mL | AUC(0-t) (AUC (0-12h), ZA 1 mg SC + 24000 U rHuPH20, individual subjects): 103 ng·h/mL | AUC(0-t) (AUC (0-12h), ZA 1 mg SC + 24000 U rHuPH20, mean, n=3): 115 ng·h/mL | AUC(0-t) (AUC (0-12h), ZA 1 mg SC + 24000 U rHuPH20, median, n=3): 104 ng·h/mL | AUC(0-t) (AUC (0-12h), ZA 2 mg SC + 24000 U rHuPH20, individual subjects): 218 ng·h/mL | AUC(0-t) (AUC (0-12h), ZA 2 mg SC + 24000 U rHuPH20, mean, n=3): 223 ng·h/mL | AUC(0-t) (AUC (0-12h), ZA 2 mg SC + 24000 U rHuPH20, median, n=3): 218 ng·h/mL | AUC(0-t) (AUC (0-12h), ZA 5 mg SC + 24000 U rHuPH20, individual subjects): 499 ng·h/mL | AUC(0-t) (AUC (0-12h), ZA 5 mg SC + 24000 U rHuPH20, mean, n=3): 517 ng·h/mL | AUC(0-t) (AUC (0-12h), ZA 5 mg SC + 24000 U rHuPH20, median, n=3): 499 ng·h/mL | CL/F (ZA 0.25 mg SC + 24000 U rHuPH20, individual subjects): 2.47 mL/min/kg
